Here are results for 2 compounds from article PMC4492579, “Potent and Selective Triazole-Based Inhibitors of the Hypoxia-Inducible Factor Prolyl-Hydroxylases with Activity in the Murine Brain” (PLoS ONE, 2015).

Each structure is given as a SMILES string. Read-outs that look alike come from different tables or passages of the source.

Test [1] concerns the target T1, JMJD1A (KDM3A) (Homo sapiens, UniProt Q9Y4C1).
T1 sequence (Q9Y4C1 1-1321): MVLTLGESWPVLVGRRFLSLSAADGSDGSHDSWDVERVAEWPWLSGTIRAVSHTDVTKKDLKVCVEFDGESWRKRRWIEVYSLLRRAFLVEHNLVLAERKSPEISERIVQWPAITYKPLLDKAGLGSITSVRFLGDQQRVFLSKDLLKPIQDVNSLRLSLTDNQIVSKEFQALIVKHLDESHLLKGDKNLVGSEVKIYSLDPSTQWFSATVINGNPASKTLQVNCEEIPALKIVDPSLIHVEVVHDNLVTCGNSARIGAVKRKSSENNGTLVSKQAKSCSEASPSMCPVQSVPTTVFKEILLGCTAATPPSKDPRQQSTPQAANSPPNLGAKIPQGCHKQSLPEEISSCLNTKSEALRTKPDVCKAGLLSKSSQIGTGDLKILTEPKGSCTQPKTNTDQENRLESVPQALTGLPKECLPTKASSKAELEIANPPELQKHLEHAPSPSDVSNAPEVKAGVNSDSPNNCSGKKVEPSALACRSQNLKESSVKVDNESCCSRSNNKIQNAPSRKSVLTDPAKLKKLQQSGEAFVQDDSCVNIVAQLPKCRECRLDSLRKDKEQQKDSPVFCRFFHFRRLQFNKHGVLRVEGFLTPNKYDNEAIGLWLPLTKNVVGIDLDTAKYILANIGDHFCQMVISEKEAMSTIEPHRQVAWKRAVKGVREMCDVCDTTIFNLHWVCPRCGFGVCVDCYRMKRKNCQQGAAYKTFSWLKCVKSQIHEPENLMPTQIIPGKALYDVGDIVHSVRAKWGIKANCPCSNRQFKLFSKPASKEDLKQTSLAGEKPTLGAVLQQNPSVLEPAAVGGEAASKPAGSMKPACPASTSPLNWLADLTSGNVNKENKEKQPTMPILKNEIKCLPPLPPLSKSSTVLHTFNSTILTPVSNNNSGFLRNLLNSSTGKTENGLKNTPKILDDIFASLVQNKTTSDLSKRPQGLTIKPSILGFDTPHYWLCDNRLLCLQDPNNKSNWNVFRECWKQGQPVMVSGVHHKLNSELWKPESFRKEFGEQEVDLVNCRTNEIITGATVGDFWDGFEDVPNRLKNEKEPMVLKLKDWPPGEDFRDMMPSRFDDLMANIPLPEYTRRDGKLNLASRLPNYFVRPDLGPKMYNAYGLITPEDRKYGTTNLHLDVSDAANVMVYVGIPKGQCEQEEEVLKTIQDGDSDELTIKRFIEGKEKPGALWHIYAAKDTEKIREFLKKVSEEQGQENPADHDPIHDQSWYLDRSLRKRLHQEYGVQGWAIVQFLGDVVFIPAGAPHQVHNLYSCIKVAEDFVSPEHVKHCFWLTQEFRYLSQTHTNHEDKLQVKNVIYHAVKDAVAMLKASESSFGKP
In words: KDM AlphaScreen assay, JMJD1A. A general note: Bead proximity is the source of the signal in Alpha formats.
Protocol: Inhibition assays for PHD2 (AlphaScreen) [9], the KDMs (AlphaScreen) [17], BBOX [18] and FTO [19] were carried out as previously described. […] IC50 values were calculated using nonlinear regression with normalized dose-response fit using GraphPad Prism 5.

Test [2] deals with T1, JMJD1A (KDM3A). Set-up: method as in PMID 26682036. The following applies: cited from earlier work.

What is called IC50 is the concentration at which inhibition is half-maximal. As for `CC(C)(C)OC(=O)c1ccc(-n2[nH]cc(-n3ccnn3)c2=O)nc1` [IOX4, t-Butyl 6-(5-oxo-4-(1H-1,2,3-triazol-1-yl)-2,5-dihydro-1H-pyrazol-1-yl)nicotinate], at JMJD1A (KDM3A) [1], the IC50 is > 20 µM.
For the compound `O=C(O)CNC(=O)c1c(O)c2ccccc2n(Cc2ccccc2)c1=O` [IOX2], the IC50 on JMJD1A (KDM3A) [2] is > 100 µM.
